According to patent US9469645B2, “Compounds and compositions for the treatment of parasitic diseases” (Novartis AG, priority 2009, dated 2016):

What was measured:
NF54 = test: parasite proliferation assay in infected red blood cells (SYBR Green I), NF54 strain; type: cell-based; settings: Plasmodium falciparum, 3D7 / NF54, Erythrocyte; cell marked (NF54): NF54 strain instead of 3D7; read-out: EC50 (NF54), printed in the 3D7 strain column
From the text: (§1) Compounds of the invention can be assayed to measure their capacity to inhibit proliferation of parasitemia in infected red blood cells. The proliferation is quantified by the addition of SYBR Green I (INVITROGEN)® dye which has a high affinity for double stranded DNA.

W2 strain [1] = test: parasite proliferation assay in infected red blood cells (SYBR Green I), W2 strain; type: cell-based; settings: Erythrocyte
From the text: as §1

[2] = test system: Trypanosoma brucei Lister 427 strain; test: Trypanosoma brucei proliferation assay (Cell Titer Glo); type: cell-based; settings: Lister 427 bloodstream form, 48 hours, read-out: EC50, proliferation of T. brucei
From the text: Compounds of the invention can be assayed to measure their capacity to inhibit proliferation of kinetoplastid parasite Trypanosoma brucei. The proliferation is quantified by the addition of Cell Titer Glo (Promega®) a luminescent cell viability assay that measures the number of viable cells in culture based on the quantification of cellular ATP amount, which is an indicator of metabolically active cells.
The following assay illustrates the invention without in any way limiting the scope of the invention. This parasite proliferation assay measures the increase in parasite growth using an assay that measures ATP activity, Cell Titer Glo®.
Trypanosoma brucei Lister 427 strain is grown in HMI-9 Trypanosome media for T. brucei bloodstream form. 30 μl of HMI-9 media is dispensed into 384 well assay plates. 200 nl of compounds of the invention (in DMSO), including anti-trypanosome controls (Pentamidine and suramin), are then transferred into the assay plates, as well as DMSO alone to serve as a negative control for inhibition. Then 25 μl of a suspension of T. brucei culture in HMI-9 media is dispensed into the assay plates. The final concentration of parasites in culture corresponds to 1.7% of 0.5 uM ATP activity with Cell Titer Glo® in HMI-9 media. […] The plates are then read for luminescence.

[3] = target: cannabinoid receptor 1 (CB1) (Homo sapiens, UniProt P21554); test: cannabinoid receptor 1 (CB1) IC50; type: binding; settings: read-out: IC50 against CB1
cannabinoid receptor 1 (CB1), sequence (P21554 whole entry, species assumed): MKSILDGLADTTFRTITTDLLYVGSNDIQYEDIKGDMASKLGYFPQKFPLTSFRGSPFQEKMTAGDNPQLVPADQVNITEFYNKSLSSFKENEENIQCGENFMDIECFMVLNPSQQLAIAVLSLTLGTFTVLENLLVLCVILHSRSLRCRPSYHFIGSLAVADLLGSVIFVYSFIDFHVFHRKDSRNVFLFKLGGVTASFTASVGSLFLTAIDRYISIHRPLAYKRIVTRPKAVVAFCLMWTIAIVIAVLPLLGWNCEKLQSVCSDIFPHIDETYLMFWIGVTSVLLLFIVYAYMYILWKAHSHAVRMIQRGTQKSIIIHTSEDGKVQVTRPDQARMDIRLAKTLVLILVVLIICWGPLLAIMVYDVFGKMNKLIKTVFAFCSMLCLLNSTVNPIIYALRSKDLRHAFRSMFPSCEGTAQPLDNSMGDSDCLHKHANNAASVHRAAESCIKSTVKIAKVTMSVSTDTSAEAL

3D7 P. falciparum strain = test: parasite proliferation assay in infected red blood cells (SYBR Green I); type: cell-based, Plasmodium falciparum; settings: Plasmodium falciparum, 3D7, Erythrocyte, 3D7 strain; read-out: EC50 3D7 strain
Procedure, shortened: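 P. falciparum 3D7 grown in O+ human erythrocytes to 3–8% parasitemia and exposed to compounds. Proliferation read as the increase in parasite DNA. Detection used SYBR Green I in saponin/triton-X/EDTA lysis buffer, with overnight lysis at room temperature.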

[4] = target: mitogen-activated protein kinase-activated protein kinase 2 (MapKap2 or MK-2) (Homo sapiens, UniProt P49137); test: MK-2 enzyme inhibition, single point concentration; type: biochemical
mitogen-activated protein kinase-activated protein kinase 2 (MapKap2 or MK-2), sequence (P49137 whole entry): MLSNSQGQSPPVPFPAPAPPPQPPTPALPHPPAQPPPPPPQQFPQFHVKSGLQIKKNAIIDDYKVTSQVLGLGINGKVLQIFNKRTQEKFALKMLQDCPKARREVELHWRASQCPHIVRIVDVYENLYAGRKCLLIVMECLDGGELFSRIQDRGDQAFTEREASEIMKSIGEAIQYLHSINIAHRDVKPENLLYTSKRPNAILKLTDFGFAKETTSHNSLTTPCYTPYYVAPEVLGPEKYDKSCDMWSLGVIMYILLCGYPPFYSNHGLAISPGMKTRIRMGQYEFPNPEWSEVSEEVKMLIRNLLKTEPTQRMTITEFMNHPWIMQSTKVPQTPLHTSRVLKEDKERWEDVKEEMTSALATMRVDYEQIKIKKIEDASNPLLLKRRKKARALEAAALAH

W2 strain [5] = test: parasite proliferation assay in infected red blood cells (SYBR Green I), W2 strain; type: cell-based, Plasmodium falciparum; settings: Plasmodium falciparum, Erythrocyte
From the text: as §1

Row | Structure (SMILES) | EC50 (NF54) | EC50 (3D7 P. falciparum strain) | EC50 (W2 strain [5]) | other results
1 | Cc1ccc(S(=O)(=O)c2c(-c3ccc(F)cc3)nc3n2CCN(C(=O)CN)C3(C)C)cc1 [Compound 725] | 5.21 µM |  |  | 
2 | CC1(C)c2nc(-c3ccc(F)cc3)c(Nc3ccc(F)cc3)n2CC(=O)N1CCN [Compound 687, 7-(2-aminoethyl)-2-(4-fluorophenyl)-3-(4-fluorophenylamino)-8,8-dimethyl-7,8-dihydroimidazo[1,2-a]pyrazin-6(5H)-one] | 3.42 µM |  |  | EC50 (W2 strain [1]; Plasmodium falciparum): 3.35 µM
3 | Cc1cc(Oc2c(-c3ccc(F)cc3)nc3n2CCN(C(=O)CN)C3(C)C)ccc1F [Compound 712] | 0.019 µM |  |  | 
4 | CC1(C)c2nc(-c3ccc(F)cc3)c(Oc3ccc(Cl)cc3)n2CCN1C(=O)CN [Compound 710] | 0.028 µM |  |  | 
5 | CC1(C)c2nc(-c3ccc(F)cc3)c(Nc3ccc(F)cc3)n2CCN1C(=O)CNC(=O)CCC1=[N+]2C(=Cc3ccc(-c4ccccc4)n3[B-]2(F)F)C=C1 [Compound 731] | 2.27 µM |  |  | EC50 (W2 strain [1]; Plasmodium falciparum): 5.61 µM
6 | CC(C)(N)C(=O)N1CCn2c(nc(-c3ccc(F)cc3)c2Nc2ccc(F)c(F)c2)C1 [Example 29, 2-amino-1-(3-(3,4-difluorophenylamino)-2-(4-fluorophenyl)-5,6-dihydroimidazo[1,2-a]pyrazin-7(8H)-yl)-2-methylpropan-1-one] |  | 0.03 µM |  | EC50 [2]: 7 µM; EC50 (W2 strain [1]): 0.036 µM; IC50 [3]: > 30 µM; inhibition of MK-2 [4]: 15%
7 | CC1(C)c2nc(-c3ccc(F)cc3)c(Oc3ccc(F)c(F)c3)n2CCN1C(=O)CN [Compound 711] | 0.034 µM |  |  | 
8 | CC1(C)c2nc(-c3ccc(F)cc3)c(CC3CCCCC3)n2CCN1C(=O)CN [Compound 699] | 0.678 µM |  |  | 
9 | CC1(C)c2nc(-c3ccc(F)cc3)c(Nc3ccc(F)cc3)n2CC(=O)N1CCO [Compound 688] | 0.106 µM |  |  | EC50 (W2 strain [1]; Plasmodium falciparum): 0.134 µM
10 | CC1(C)c2nc(-c3ccc(F)cc3)c(Nc3ccc(F)cc3)n2CCN1C(=O)CN [example 412, 2-amino-1-(2-(4-fluorophenyl)-3-(4-fluorophenylamino)-8,8-dimethyl-5,6-dihydroimidazo[1,2-a]pyrazin-7(8H)-yl)ethanone] |  | 0.01 µM | 0.006 µM | EC50 [2]: 10 µM; IC50 [3]: 24 µM; inhibition of MK-2 [4]: 7%
11 | COc1ccc(-c2ccc3n2[B-](F)(F)[N+]2=C(C)C(CCC(=O)NCCCCCC(=O)NCC(=O)N4CCn5c(nc(-c6ccc(F)cc6)c5Nc5ccc(F)cc5)C4(C)C)=C(C)C2=C3)cc1 [Compound 732] | 1.22 µM |  |  | EC50 (W2 strain [1]; Plasmodium falciparum): 1.44 µM
12 | Cc1cccc(Nc2c(-c3ccc(F)cc3)nc3n2CCN(C(=O)CN)C3(C)C)c1 [Compound 499] |  | 0.01 µM | 0.006 µM | 
13 | CC1(C)NC(=O)Cn2c1nc(-c1ccc(F)cc1)c2Nc1ccc(Cl)cc1 [Compound 508] |  | 0.13 µM | 0.126 µM | 
14 | Cc1ccc(Nc2c(-c3ccc(F)cc3)nc3n2CCN(C(=O)C(C)(C)N)C3(C)C)cc1C#N [Compound 590] |  | 0.03 µM | 0.018 µM | 
15 | Cc1cc(Nc2c(-c3ccc(F)cc3)nc3n2CCN(C(=O)CN)C3(C)C)ccc1F [Compound 495] |  | 0.09 µM | 0.039 µM | 
16 | CC1(C)NCCn2c1nc(-c1ccc(F)cc1)c2Nc1ccc(F)cc1 [Compound 493] |  | 0.004 µM | 0.005 µM | 
17 | N[C@@H](Cc1ccc(F)cc1)C(=O)N1CCn2c(nc(-c3ccc(F)cc3)c2Nc2ccc(Cl)cc2)C1 [Compound 458] |  | 0.02 µM | 0.017 µM | 
